Key:
[1] = target: T1, RAMP1-CLR (CGRP receptor) (Homo sapiens, UniProt O60894+Q16602); assay: S. cerevisiae growth assay, GPA1/Gαi chimera, RAMP1 + CLR; format: cell-based; settings: percentage of yeast strain MMY11 (lacking GPA1); 20 h; mean ± S.E., n = 6
T1 construct: FLAG; expressed in transfected cells; host or cells: HEK-293 or HEK-293S cells, transient transfection, 1:1 RAMP:CLR
Protocol: (§1) FIGURE 3. […] Reporter gene activity was determined following 20 h of stimulation.
(§2) General yeast procedures were performed as described previously ([22], [24]). The human CLR was introduced into yeast cells under the control of the PGK promoter using a plasmid containing ura3 (pDT-PGK). The three human RAMPs were introduced into yeast under the control of the GAPDH promoter using plasmids containing leu2 (p425-GPD) ([25]). S. cerevisiae dual reporter strains expressing chimeras of yeast GPA1(1–467) (GPA1/Gα) with the five C-terminal amino acids of […] human G proteins representing Gαs, Gα16, Gαq, Gαo, Gαi1/2, Gαi3, Gαz, Gα12, Gα13, and Gα14 (MMY84–MMY93) were used in this study ([52]). […] Receptor signaling was measured using the yeast growth assay as described previously ([24]). […] A fluorescein signal was detected as an increase in fluorescence (excitation wavelength = 485 nm, emission wavelength = 535 nm) as a measure of growth. Different concentrations of ligand (0.01 nM–100 μM) were assayed using 96-well plates, and fluorescence was detected using a Tecan Infinite M200 microplate reader (Tecan Ultra Evolution, Reading, UK) or a Mithras LB 940 microplate reader (Berthold Technologies, Harpenden, UK) for 20 h. […]

[2] = target: T2, RAMP3-CLR (AM2 receptor) (Homo sapiens, UniProt O60896+Q16602); assay: S. cerevisiae growth assay, GPA1/Gαi chimera, RAMP3 + CLR; format: cell-based; settings: percentage of yeast strain MMY11 (lacking GPA1); 20 h; mean ± S.E., n = 7
T2 construct: FLAG; expressed in transfected cells; host or cells: HEK-293 or HEK-293S cells, transient transfection, 1:1 RAMP:CLR
T2 sequence (Q16602 23-461): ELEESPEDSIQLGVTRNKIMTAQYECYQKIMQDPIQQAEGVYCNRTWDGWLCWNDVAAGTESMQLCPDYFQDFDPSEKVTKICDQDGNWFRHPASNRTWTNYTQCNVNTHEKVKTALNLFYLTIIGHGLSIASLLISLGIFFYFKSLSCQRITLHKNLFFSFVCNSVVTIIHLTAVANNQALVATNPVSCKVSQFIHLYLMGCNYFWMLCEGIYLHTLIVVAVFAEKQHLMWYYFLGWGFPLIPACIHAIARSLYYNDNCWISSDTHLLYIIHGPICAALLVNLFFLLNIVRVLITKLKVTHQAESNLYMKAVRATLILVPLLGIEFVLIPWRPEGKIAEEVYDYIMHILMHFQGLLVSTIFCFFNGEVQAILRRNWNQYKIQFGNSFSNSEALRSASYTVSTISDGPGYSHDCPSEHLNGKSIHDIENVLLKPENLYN
T2 sequence (O60896 24-148): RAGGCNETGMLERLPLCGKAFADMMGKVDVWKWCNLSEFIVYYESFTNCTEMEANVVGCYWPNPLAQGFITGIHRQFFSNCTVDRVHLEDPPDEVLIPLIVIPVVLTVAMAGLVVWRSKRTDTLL
Protocol: as §1, §2

T1 sequence (Q16602 23-461): as the sequence (Q16602 23-461) above
T1 sequence (O60894 27-148): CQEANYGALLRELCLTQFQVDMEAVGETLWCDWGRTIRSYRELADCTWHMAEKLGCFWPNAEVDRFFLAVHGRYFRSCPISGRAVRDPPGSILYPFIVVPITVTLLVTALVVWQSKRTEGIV

Row | Emax [1] | Emax [2] | SMILES
1 | 41.5 ± 3.3% | 15.7 ± 2.1% | CSCC[C@H](NC(=O)[C@H](CC(C)C)NC(=O)[C@H](CCC(N)=O)NC(=O)[C@H](Cc1c[nH]c2ccccc12)NC(=O)[C@H](CC(C)C)NC(=O)[C@H](CCCNC(=N)N)NC(=O)[C@H](Cc1c[nH]cn1)NC(=O)[C@H](CO)NC(=O)[C@H](CC(C)C)NC(=O)[C@H](CC(N)=O)NC(=O)[C@H](CCC(N)=O)NC(=O)[C@@H](NC(=O)[C@H](CCC(N)=O)NC(=O)[C@@H]1CSSC[C@H](NC(=O)CNC(=O)[C@@H](NC(=O)[C@H](CCCNC(=N)N)NC(=O)[C@H](CC(C)C)NC(=O)[C@H](CC(C)C)NC(=O)[C@H](CCC(N)=O)NC(=O)[C@H](C)NC(=O)[C@H](CCC(N)=O)NC(=O)[C@@H](N)[C@@H](C)O)C(C)C)C(=O)N[C@@H](C(C)C)C(=O)N[C@@H](CC(C)C)C(=O)NCC(=O)N[C@@H]([C@@H](C)O)C(=O)N1)C(C)C)C(=O)NCC(=O)N1CCC[C@H]1C(=O)N[C@@H](C)C(=O)NCC(=O)N[C@@H](CCCNC(=N)N)C(=O)N[C@@H](CCC(N)=O)C(=O)N[C@@H](CC(=O)O)C(=O)N[C@@H](CO)C(=O)N[C@@H](C)C(=O)N1CCC[C@H]1C(=O)N[C@H](C(=O)N[C@@H](CC(=O)O)C(=O)N1CCC[C@H]1C(=O)N[C@@H](CO)C(=O)N[C@@H](CO)C(=O)N1CCC[C@H]1C(=O)N[C@@H](Cc1c[nH]cn1)C(=O)N[C@@H](CO)C(=O)N[C@@H](Cc1ccc(O)cc1)C(N)=O)C(C)C [AM2, adrenomedullin 2]
2 | 34.2 ± 3.7% | 26.7 ± 1.8% | CC[C@H](C)[C@H](NC(=O)[C@H](CCC(N)=O)NC(=O)[C@H](Cc1c[nH]cn1)NC(=O)[C@H](C)NC(=O)[C@H](CC(C)C)NC(=O)[C@H](CCCCN)NC(=O)[C@H](CCC(N)=O)NC(=O)[C@@H](NC(=O)[C@@H](NC(=O)[C@@H]1CSSC[C@H](NC(=O)CNC(=O)[C@H](Cc2ccccc2)NC(=O)[C@H](CO)NC(=O)[C@H](CCCNC(=N)N)NC(=O)[C@H](CC(C)C)NC(=O)CNC(=O)[C@H](CCC(N)=O)NC(=O)[C@H](Cc2ccccc2)NC(=O)[C@H](CC(N)=O)NC(=O)[C@H](CC(N)=O)NC(=O)[C@H](CCSC)NC(=O)[C@H](CO)NC(=O)[C@H](CCC(N)=O)NC(=O)[C@H](CCCNC(=N)N)NC(=O)[C@@H](N)Cc2ccc(O)cc2)C(=O)N[C@@H](CCCNC(=N)N)C(=O)N[C@@H](Cc2ccccc2)C(=O)NCC(=O)N[C@@H]([C@@H](C)O)C(=O)N1)[C@@H](C)O)C(C)C)C(=O)N[C@@H](Cc1ccc(O)cc1)C(=O)N[C@@H](CCC(N)=O)C(=O)N[C@@H](Cc1ccccc1)C(=O)N[C@H](C(=O)N[C@@H](CC(=O)O)C(=O)N[C@@H](CCCCN)C(=O)N[C@@H](CC(=O)O)C(=O)N[C@@H](CCCCN)C(=O)N[C@@H](CC(=O)O)C(=O)N[C@@H](CC(N)=O)C(=O)N[C@H](C(=O)N[C@@H](C)C(=O)N1CCC[C@H]1C(=O)N[C@@H](CCCNC(=N)N)C(=O)N[C@@H](CO)C(=O)N[C@@H](CCCCN)C(=O)N[C@H](C(=O)N[C@@H](CO)C(=O)N1CCC[C@H]1C(=O)N[C@@H](CCC(N)=O)C(=O)NCC(=O)N[C@@H](Cc1ccc(O)cc1)C(N)=O)[C@@H](C)CC)C(C)C)[C@@H](C)O [AM, adrenomedullin]
